Experimental data: the supplement of paper PMC10883282
± gives the standard deviation of the averaged measurements.

System: SYO-1
Test: relative viability vs DMSO control (72 h) (fraction); higher = more viable cells
Summary of the method: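 Plates held 72 h at 37 °C and 5% CO2 contained sarcoma cell lines seeded in 384-well format to reach 80–90% confluence, plus 2.5 µl of serially diluted compound added after 24 h. Source plate concentrations ran from 10 mM to 0.0002 mM, with 0.1% DMSO as vehicle and a 5 µM positive control. Percent growth from ATPLite readings, averaged over up to triplicate wells, gave relative viability. Values were rescaled with 1 as full and 0 as none.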

| SMILES | relative viability (0.00017 µM) | relative viability (0.00051 µM) | relative viability (0.00152 µM) | relative viability (0.00457 µM) | relative viability (0.01372 µM) | relative viability (0.04115 µM) | relative viability (0.1235 µM) | relative viability (0.3704 µM) | relative viability (1.111 µM) | relative viability (3.333 µM) | relative viability (10 µM) |
| --- | --- | --- | --- | --- | --- | --- | --- | --- | --- | --- | --- |
| CCN1CCN(Cc2ccc(Nc3ncc(F)c(-c4cc(F)c5nc(C)n(C(C)C)c5c4)n3)nc2)CC1 [Abemaciclib] | 0.953 ± 0.047 | 0.936 ± 0.043 | 0.925 ± 0.029 | 0.905 ± 0.051 | 0.849 ± 0.059 | 0.775 ± 0.064 | 0.657 ± 0.051 | 0.519 ± 0.039 | 0.461 ± 0.015 | 0.353 ± 0.059 | 0.0228 ± 0.055 |
| CC(C)NC(=O)C1CCC(n2c(NC(=O)c3ccc(F)cc3)nc3ccc(CN4CCC(C(C)(C)O)CC4)cc32)CC1 (stereo not drawn) [Belizatinib] | 0.993 ± 0.062 | 0.983 ± 0.019 | 0.983 ± 0.055 | 1 ± 0.069 | 0.96 ± 0.03 | 0.967 ± 0.044 | 0.902 ± 0.052 | 0.798 ± 0.046 | 0.639 ± 0.046 | 0.336 ± 0.018 | 0.155 ± 0.03 |
| CC[C@H](Nc1ncnc2[nH]cnc12)c1nc2cccc(F)c2c(=O)n1-c1ccccc1 [Idelalisib] | 1.01 ± 0.062 | 0.979 ± 0.029 | 1 ± 0.054 | 0.968 ± 0.068 | 0.972 ± 0.069 | 0.942 ± 0.028 | 0.941 ± 0.032 | 0.931 ± 0.068 | 0.911 ± 0.045 | 0.866 ± 0.067 | 0.799 ± 0.079 |
| CC(C)(C)c1cc(NC(=O)Nc2ccc(-c3cn4c(n3)sc3cc(OCCN5CCOCC5)ccc34)cc2)no1 [Quizartinib] | 0.978 ± 0.017 | 0.963 ± 0.02 | 0.973 ± 0.044 | 0.943 ± 0.035 | 0.935 ± 0.034 | 0.9229 ± 0.0014 | 0.873 ± 0.015 | 0.715 ± 0.043 | 0.67 ± 0.046 | 0.646 ± 0.034 | 0.627 ± 0.044 |
| Cc1cnc(Nc2ccc(OCCN3CCCC3)cc2)nc1Nc1cccc(S(=O)(=O)NC(C)(C)C)c1 [Fedratinib] | 0.982 ± 0.04 | 0.943 ± 0.078 | 0.941 ± 0.09 | 0.933 ± 0.037 | 0.898 ± 0.053 | 0.843 ± 0.027 | 0.748 ± 0.066 | 0.496 ± 0.052 | 0.132 ± 0.0092 | -0.0159 ± 0.0034 | -0.0172 ± 0.0037 |
| CC1(C)CNc2cc(NC(=O)c3cccnc3NCc3ccncc3)ccc21 [Motesanib] | 0.962 ± 0.012 | 0.979 ± 0.043 | 0.996 ± 0.05 | 0.974 ± 0.043 | 0.973 ± 0.025 | 0.914 ± 0.036 | 0.866 ± 0.029 | 0.777 ± 0.054 | 0.724 ± 0.021 | 0.648 ± 0.016 | 0.494 ± 0.019 |
| Nc1cc(C(F)(F)F)c(-c2cc(N3CCOCC3)nc(N3CCOCC3)n2)cn1 [Buparlisib] | 0.933 ± 0.025 | 0.939 ± 0.011 | 0.935 ± 0.028 | 0.931 ± 0.022 | 0.894 ± 0.043 | 0.878 ± 0.066 | 0.81 ± 0.075 | 0.739 ± 0.052 | 0.456 ± 0.0064 | 0.159 ± 0.0096 | 0.136 ± 0.005 |
| Cc1cc(C)c(/C=C2\C(=O)Nc3ccccc32)[nH]1 [Semaxanib] | 0.922 ± 0.014 | 0.915 ± 0.01 | 0.917 ± 0.014 | 0.908 ± 0.025 | 0.87 ± 0.035 | 0.824 ± 0.056 | 0.774 ± 0.047 | 0.721 ± 0.03 | 0.649 ± 0.046 | 0.632 ± 0.041 | 0.579 ± 0.0071 |
| CCc1cc2c(cc1N1CCC(N3CCOCC3)CC1)C(C)(C)c1[nH]c3cc(C#N)ccc3c1C2=O [Alectinib] | 0.979 ± 0.024 | 0.983 ± 0.032 | 0.982 ± 0.058 | 0.975 ± 0.059 | 0.99 ± 0.072 | 0.98 ± 0.031 | 0.972 ± 0.081 | 0.986 ± 0.051 | 1 ± 0.05 | 0.984 ± 0.045 | 1.03 ± 0.034 |
| Cn1cnc2c(F)c(Nc3ccc(Br)cc3F)c(C(=O)NOCCO)cc21 [Binimetinib] | 1.04 ± 0.027 | 1.05 ± 0.02 | 1.01 ± 0.064 | 1.01 ± 0.038 | 0.983 ± 0.024 | 0.96 ± 0.042 | 0.936 ± 0.038 | 0.933 ± 0.019 | 0.93 ± 0.069 | 0.889 ± 0.042 | 0.86 ± 0.059 |
| C=CC(=O)Nc1cccc(Oc2nc(Nc3ccc(N4CCN(C)CC4)cc3)nc3ccsc23)c1 [Olmutinib] | 0.957 ± 0.02 | 0.985 ± 0.043 | 0.955 ± 0.018 | 0.952 ± 0.01 | 0.953 ± 0.021 | 0.9712 ± 0.0081 | 0.972 ± 0.037 | 0.933 ± 0.017 | 0.908 ± 0.045 | 0.698 ± 0.044 | -0.00933 ± 0.0049 |
| CN1CCN(c2ccc3nc(-c4c(N)c5c(F)cccc5[nH]c4=O)[nH]c3c2)CC1 [Dovitinib] | 1.04 ± 0.049 | 1.038 ± 0.0075 | 0.992 ± 0.037 | 0.998 ± 0.03 | 0.974 ± 0.014 | 0.927 ± 0.035 | 0.833 ± 0.0092 | 0.556 ± 0.012 | 0.388 ± 0.025 | 0.17 ± 0.023 | -0.0198 ± 0.0062 |
| O=C(Cc1ccc(-c2ccc(OCCN3CCOCC3)cc2)cn1)NCc1ccccc1 [KX2-391] | 1 ± 0.039 | 0.973 ± 0.038 | 0.958 ± 0.017 | 0.952 ± 0.042 | 0.917 ± 0.034 | 0.673 ± 0.027 | 0.295 ± 0.013 | 0.309 ± 0.011 | 0.324 ± 0.015 | 0.324 ± 0.011 | 0.357 ± 0.011 |
| C[C@@H]1COCCN1c1cc(-c2ccnn2C)c2ccnc(-c3ccn[nH]3)c2n1 | 0.9163 ± 0.0052 | 0.928 ± 0.028 | 0.911 ± 0.043 | 0.903 ± 0.06 | 0.799 ± 0.07 | 0.627 ± 0.044 | 0.415 ± 0.03 | 0.286 ± 0.018 | 0.199 ± 0.0027 | 0.116 ± 0.0028 | 0.0976 ± 0.0066 |
| CNC(=O)c1cc(Oc2ccc(NC(=O)Nc3ccc(Cl)c(C(F)(F)F)c3)c(F)c2)ccn1 [Regorafenib] | 1.02 ± 0.039 | 1.022 ± 0.0037 | 1.04 ± 0.05 | 1.01 ± 0.035 | 1.03 ± 0.02 | 0.999 ± 0.05 | 0.954 ± 0.065 | 0.755 ± 0.038 | 0.572 ± 0.022 | 0.476 ± 0.016 | 0.217 ± 0.016 |
| Cc1ccc(NC(=O)c2ccc(CN3CCN(C)CC3)cc2)cc1Nc1nc(-c2cccnc2)cs1 [Masitinib] | 1.04 ± 0.023 | 1.02 ± 0.02 | 1.01 ± 0.027 | 1.01 ± 0.026 | 0.974 ± 0.026 | 0.916 ± 0.039 | 0.801 ± 0.021 | 0.676 ± 0.032 | 0.553 ± 0.038 | 0.242 ± 0.033 | -0.0235 ± 0.0061 |
| CNC(=O)c1ccc(-c2cnc3ncc(Cc4ccc5ncccc5c4)n3n2)cc1F [Capmatinib] | 0.956 ± 0.039 | 0.962 ± 0.044 | 0.966 ± 0.028 | 0.968 ± 0.015 | 0.97 ± 0.03 | 0.961 ± 0.042 | 0.97 ± 0.033 | 0.967 ± 0.026 | 0.994 ± 0.023 | 1.03 ± 0.03 | 1.01 ± 0.067 |
| CCCS(=O)(=O)Nc1ccc(F)c(C(=O)c2c[nH]c3ncc(-c4ccc(Cl)cc4)cc23)c1F [Vemurafenib] | 0.954 ± 0.056 | 0.955 ± 0.048 | 0.963 ± 0.04 | 0.966 ± 0.061 | 0.975 ± 0.051 | 0.967 ± 0.043 | 0.974 ± 0.024 | 1 ± 0.027 | 0.986 ± 0.042 | 0.95 ± 0.076 | 0.608 ± 0.072 |
